From patent US5536749A, “Method for attenuation of sympathetic nervous system activity or onset of migraine by selectively metabolized beta-blocking agents” (SL Pharmaceuticals, Inc., priority 1994, dated 1996)

Test system: isoproterenolinduced tachycardia
Test: beta-blocking action (potency, onset and duration) in anesthetized dogs after sublingual administration
Format: in vivo, dog
Description: The procedure described by J. E. Shaffer et al. in Drug Development Research 1, 221-232 (1986) was used to assess the potency, onset and duration of beta-blocking action of the compounds of Formula I in anesthetized dogs, except that compositions of Formula I were administered sublingually to the dog instead of by intravenous infusion. Using this method the results shown below were obtained with representative compounds A and B.
^1 Defined as the time from sublingual dosing to the first detectable
decrease in heart rate.
^2 Defined as the percent of reduction in isoproterenolinduced
^3 Defined as the times from sublingual dosing to the peak blockade o
isoproterenol observed. (Isoproterenol dose every ten minuets.)
^4 Defined as the time from peak blockade to the decay of blockade by […]

COC(=O)CCc1ccccc1OCC(O)CNC(C)C (stereo not drawn) [A]
Peak Blockade (% Inhibition) (0.16 mpk (mg/kg), first line of Table 1, percent of reduction in isoproterenol-induced tachycardia): 35 ± 6%
Beta-Blockade Onset (0.16 mpk (mg/kg), first line of Table 1, time from dosing to first detectable decrease in heart rate): 1 to 2 min
Time to Peak Blockade (0.16 mpk (mg/kg), first line of Table 1, time from dosing to peak blockade of isoproterenol (dosed every ten minutes)): 10 min
Time to 50% Recovery from Blockade (0.16 mpk (mg/kg), first line of Table 1, time from peak blockade to decay of blockade by 50% of the peak): 38 min
Peak Blockade (% Inhibition) (0.16 mpk (mg/kg), second line of Table 1, percent of reduction in isoproterenol-induced tachycardia): 39 ± 2%
Beta-Blockade Onset (0.16 mpk (mg/kg), second line of Table 1, time from dosing to first detectable decrease in heart rate): 3 to 4 min
Time to Peak Blockade (0.16 mpk (mg/kg), second line of Table 1, time from dosing to peak blockade of isoproterenol (dosed every ten minutes)): 10 min
Time to 50% Recovery from Blockade (0.16 mpk (mg/kg), second line of Table 1, time from peak blockade to decay of blockade by 50% of the peak): 43 min
Peak Blockade (% Inhibition) (0.47 mpk (mg/kg), third line of Table 1, percent of reduction in isoproterenol-induced tachycardia): 65 ± 4%
Beta-Blockade Onset (0.47 mpk (mg/kg), third line of Table 1, time from dosing to first detectable decrease in heart rate): 2 to 3 min
Time to Peak Blockade (0.47 mpk (mg/kg), third line of Table 1, time from dosing to peak blockade of isoproterenol (dosed every ten minutes)): 10 min
Time to 50% Recovery from Blockade (0.47 mpk (mg/kg), third line of Table 1, time from peak blockade to decay of blockade by 50% of the peak): 81 min
